Reference: patent US20090227547A1, “Novel salt form of a Beta2-adrenergic agonist quinolin-2-one derivative” (Glaxo Group Limited, priority 2005, published 2009)

Tests used:
Assay type in all cases: physicochemical
[1] = physical and chemical stability on storage; conditions: general statement
hygroscopicity = test: hygroscopicity
[2] = solubility in solvents (crystallisation antisolvents); conditions: in a wide range of solvents usable as antisolvents (water, tetrahydrofuran, lower alcohols, acetone)

hygroscopicity (hygroscopicity): substantially non-hygroscopic | solubility [2]: limited solubility
Substance: N-[2-[4-[(3-phenyl-4-methoxyphenyl)amino]phenyl]ethyl]-(R)-2-hydroxy-2-(8-hydroxy-1,2-dihydro-2-oxoquinolin-5-yl)ethylammonium 2,5-dichlorobenzenesulfonate
physical and chemical stability on storage [1]: good physical and chemical stability on storage
